Here are results for one compound from ChEMBL document CHEMBL1158145, “Xenofuranones A and B: phenylpyruvate dimers from Xenorhabdus szentirmaii” (J Nat Prod, 2006).

In brackets after ≈: the same amount, converted by molar mass.

For this assay, the system named is L929. In words: Cytotoxicity against mouse L929 cells. In kind it is cell-based.

The IC50 is the concentration that inhibits the measured activity by half. Read a high IC50 as lower potency. Compound `COC1=C(c2ccccc2)C(Cc2ccccc2)OC1=O` (stereo unspecified) [XENOFURANONE A] returned a half-maximal inhibitory concentration (IC50) of 18 µg/mL (≈ 64.2 µM).
